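Growth conditions: 96-well plates. Treatment: test compound, 48 hours, 5 concentrations. Analysis: linear interpolation between bracketing concentrations; unreached endpoints set to highest concentration. At the GI50, growth is halved.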 The source made the active and inactive calls. No stated cut-off is given here; in the data, active = GI50 up to about 1.1 µM and inactive = higher.
Assays:
Assay in all cases: DTP human tumour cell line panel, 48 h
[1] = system: MCF7
[2] = system: M14
[3] = system: RPMI-8226
[4] = system: OVCAR-8
[5] = system: MOLT-4
[6] = system: HOP-62
[7] = system: NCI-H522
[8] = system: MDA-MB-231
[9] = system: TK-10
[10] = system: IGROV-1
[11] = system: ACHN
[12] = system: LOX IMVI
[13] = system: COLO 205
[14] = system: A549
[15] = system: SK-MEL-28
[16] = system: SK-MEL-2
[17] = system: HL-60
[18] = system: A498
[19] = system: SK-OV-3

Row | SMILES | GI50 [1] | GI50 [2] | GI50 [3] | GI50 [4] | GI50 [5] | GI50 [6] | GI50 [7] | GI50 [8] | GI50 [9] | GI50 [10] | GI50 [11] | GI50 [12] | GI50 [13] | GI50 [14] | GI50 [15] | GI50 [16] | GI50 [17] | GI50 [18] | GI50 [19]
1 | ClCc1nc2ccccc2[nH]1 | 99.1 µM (inactive) | > 100 µM (inactive) | > 100 µM (inactive) | > 100 µM (inactive) | 54 µM (inactive) | > 100 µM (inactive) | > 100 µM (inactive) | > 100 µM (inactive) | > 100 µM (inactive) | > 100 µM (inactive) | 85.1 µM (inactive) | 37.2 µM (inactive) | > 100 µM (inactive) | > 100 µM (inactive) | > 100 µM (inactive) | > 100 µM (inactive) | > 100 µM (inactive) | > 100 µM (inactive) | –
2 | O=C1Nc2ccccc2/C1=C\c1c(-c2ccccc2)nc2n1CCS2 | 12.5 µM (inactive) | 30.3 µM (inactive) | 22.6 µM (inactive) | 31.3 µM (inactive) | 25.8 µM (inactive) | 29.2 µM (inactive) | 18.7 µM (inactive) | 21.4 µM (inactive) | 13.9 µM (inactive) | 23 µM (inactive) | 23.6 µM (inactive) | 18.3 µM (inactive) | 29 µM (inactive) | 28.4 µM (inactive) | 31.2 µM (inactive) | 13.3 µM (inactive) | 18.2 µM (inactive) | 18.2 µM (inactive) | 21.4 µM (inactive)
3 | C=C1CC(Cn2ccc(=O)[nH]c2=O)(c2ccc(OC)cc2)OC1=O (configuration not stated) | 4.43 µM (inactive) | 7.21 µM (inactive) | 2.88 µM (inactive) | 20.1 µM (inactive) | 2.5 µM (inactive) | 47.4 µM (inactive) | 1.94 µM (inactive) | 16.6 µM (inactive) | 10 µM (inactive) | 15.7 µM (inactive) | 18.7 µM (inactive) | 10.9 µM (inactive) | 4.14 µM (inactive) | 24 µM (inactive) | 18 µM (inactive) | 12.8 µM (inactive) | 2.35 µM (inactive) | 15.3 µM (inactive) | 28.8 µM (inactive)
4 | CCN(CC)c1cc2c3c(c1)CCCN3CCC2 | > 10 µM (inactive) | > 10 µM (inactive) | > 10 µM (inactive) | > 10 µM (inactive) | > 10 µM (inactive) | > 10 µM (inactive) | > 10 µM (inactive) | > 10 µM (inactive) | > 10 µM (inactive) | > 10 µM (inactive) | > 10 µM (inactive) | > 10 µM (inactive) | > 10 µM (inactive) | > 10 µM (inactive) | > 10 µM (inactive) | > 10 µM (inactive) | > 10 µM (inactive) | > 10 µM (inactive) | > 10 µM (inactive)
5 | Cc1ccc2cccc3c2c1CC1(C3=O)S(=O)(=O)OCCOS1(=O)=O | > 100 µM (inactive) | > 100 µM (inactive) | > 100 µM (inactive) | > 100 µM (inactive) | > 100 µM (inactive) | > 100 µM (inactive) | > 100 µM (inactive) | > 100 µM (inactive) | > 100 µM (inactive) | > 100 µM (inactive) | > 100 µM (inactive) | > 100 µM (inactive) | > 100 µM (inactive) | > 100 µM (inactive) | > 100 µM (inactive) | > 100 µM (inactive) | > 100 µM (inactive) | > 100 µM (inactive) | > 100 µM (inactive)
6 | CN1CCN(c2n[nH]c(=O)c3c2nnn3C2CCCCC2)CC1 | > 100 µM (inactive) | > 100 µM (inactive) | > 100 µM (inactive) | > 100 µM (inactive) | > 100 µM (inactive) | > 100 µM (inactive) | > 100 µM (inactive) | > 100 µM (inactive) | > 100 µM (inactive) | > 100 µM (inactive) | > 100 µM (inactive) | > 100 µM (inactive) | > 100 µM (inactive) | > 100 µM (inactive) | > 100 µM (inactive) | > 100 µM (inactive) | > 100 µM (inactive) | > 100 µM (inactive) | –
7 | CNC(=O)c1nnn(C2CCCCC2)c1S | > 100 µM (inactive) | > 100 µM (inactive) | > 100 µM (inactive) | > 100 µM (inactive) | > 100 µM (inactive) | > 100 µM (inactive) | > 100 µM (inactive) | > 100 µM (inactive) | – | > 100 µM (inactive) | > 100 µM (inactive) | > 100 µM (inactive) | > 100 µM (inactive) | > 100 µM (inactive) | > 100 µM (inactive) | > 100 µM (inactive) | > 100 µM (inactive) | > 100 µM (inactive) | > 100 µM (inactive)
8 | N#Cc1ccccc1NC(=O)/C(=N\NC(=O)c1ccncc1)C(c1cnc2ccc([N+](=O)[O-])cc2n1)[N+](=O)[O-] (configuration not stated) | 80.2 µM (inactive) | 67.6 µM (inactive) | 49 µM (inactive) | > 100 µM (inactive) | 80 µM (inactive) | > 100 µM (inactive) | 33 µM (inactive) | > 100 µM (inactive) | > 100 µM (inactive) | 95.9 µM (inactive) | 28 µM (inactive) | 84.5 µM (inactive) | – | 97.9 µM (inactive) | > 100 µM (inactive) | > 100 µM (inactive) | > 100 µM (inactive) | > 100 µM (inactive) | > 100 µM (inactive)
9 | Cc1ccc(C(=C2Sc3ccccc3S2)C(=C2Sc3ccccc3S2)c2ccc(C)s2)s1 | > 100 µM (inactive) | 76.2 µM (inactive) | > 100 µM (inactive) | > 100 µM (inactive) | > 100 µM (inactive) | > 100 µM (inactive) | > 100 µM (inactive) | 42.8 µM (inactive) | > 100 µM (inactive) | > 100 µM (inactive) | > 100 µM (inactive) | – | > 100 µM (inactive) | > 100 µM (inactive) | > 100 µM (inactive) | > 100 µM (inactive) | 13.6 µM (inactive) | > 100 µM (inactive) | > 100 µM (inactive)
10 | COc1ccc(C2=NN(C(=O)c3ccc(Cl)cc3)C(O)(c3cc(F)c(Cl)cc3Cl)C2)cc1OC (configuration not stated) | 4.61 µM (inactive) | 12.5 µM (inactive) | 6.03 µM (inactive) | 58.1 µM (inactive) | 4.13 µM (inactive) | 99.8 µM (inactive) | 6.68 µM (inactive) | > 100 µM (inactive) | 86.7 µM (inactive) | 35.1 µM (inactive) | 14.9 µM (inactive) | 37.9 µM (inactive) | – | – | > 100 µM (inactive) | 78.7 µM (inactive) | 0.495 µM (active) | 5.2 µM (inactive) | > 100 µM (inactive)
11 | O=C(/C=C1\Nc2ccc([N+](=O)[O-])cc2N\C1=C/C(=O)c1ccc(F)cc1)c1ccc(F)cc1 | 52.8 µM (inactive) | > 100 µM (inactive) | 20.9 µM (inactive) | > 100 µM (inactive) | 17.6 µM (inactive) | 7.35 µM (inactive) | 10.5 µM (inactive) | 16 µM (inactive) | 15.3 µM (inactive) | 40 µM (inactive) | 13.9 µM (inactive) | > 100 µM (inactive) | > 100 µM (inactive) | > 100 µM (inactive) | > 100 µM (inactive) | 17.2 µM (inactive) | 20.7 µM (inactive) | 19.6 µM (inactive) | 17.9 µM (inactive)
12 | COC(=O)[C@]12CC[C@H]3CN(C(=O)OCc4ccccc4)[C@H]([C@H]31)[C@H](c1ccco1)N2S(=O)(=O)c1ccc(C)cc1 | 17.5 µM (inactive) | 17.5 µM (inactive) | 11.6 µM (inactive) | 28.9 µM (inactive) | 21.8 µM (inactive) | 25.8 µM (inactive) | 19.2 µM (inactive) | 35 µM (inactive) | 33.2 µM (inactive) | 20.5 µM (inactive) | 35.3 µM (inactive) | 16.3 µM (inactive) | 19.8 µM (inactive) | 31.8 µM (inactive) | 39.2 µM (inactive) | 20.7 µM (inactive) | 16.3 µM (inactive) | 27.4 µM (inactive) | 52.1 µM (inactive)
13 | CC(O)(CNS(=O)(=O)c1ccccc1)c1ccccc1 (configuration not stated) | > 100 µM (inactive) | > 100 µM (inactive) | > 100 µM (inactive) | > 100 µM (inactive) | – | > 100 µM (inactive) | > 100 µM (inactive) | > 100 µM (inactive) | > 100 µM (inactive) | > 100 µM (inactive) | > 100 µM (inactive) | > 100 µM (inactive) | > 100 µM (inactive) | > 100 µM (inactive) | > 100 µM (inactive) | > 100 µM (inactive) | > 100 µM (inactive) | > 100 µM (inactive) | > 100 µM (inactive)
14 | NC(=O)CC(N)c1nnn[nH]1 (configuration not stated) | > 100 µM (inactive) | > 100 µM (inactive) | > 100 µM (inactive) | > 100 µM (inactive) | > 100 µM (inactive) | > 100 µM (inactive) | > 100 µM (inactive) | > 100 µM (inactive) | > 100 µM (inactive) | > 100 µM (inactive) | > 100 µM (inactive) | > 100 µM (inactive) | > 100 µM (inactive) | > 100 µM (inactive) | > 100 µM (inactive) | > 100 µM (inactive) | > 100 µM (inactive) | > 100 µM (inactive) | > 100 µM (inactive)
15 | FC(F)(F)c1ccc2c(c1)nc(-c1ccccc1)n2CC1CCCN2CCCCC12 (configuration not stated) | 17.1 µM (inactive) | 17.1 µM (inactive) | 32 µM (inactive) | 18.6 µM (inactive) | 25.9 µM (inactive) | 27.5 µM (inactive) | 14.2 µM (inactive) | 13.6 µM (inactive) | 19.6 µM (inactive) | 18.3 µM (inactive) | 19.9 µM (inactive) | 15.4 µM (inactive) | 13 µM (inactive) | 24.9 µM (inactive) | 18.2 µM (inactive) | 15.3 µM (inactive) | 14.3 µM (inactive) | 22.2 µM (inactive) | 16.9 µM (inactive)

Reference: ChEMBL document CHEMBL1201862, “PubChem BioAssay data set” (2004)
